Assays:
mutant collagen X = assay: Western blot of intracellular mutant collagen X protein, with proteasome or lysosome inhibitors; assay type: cell-based
Procedure: FIG. 1 illustrates the effects of carbamazepine treatment on ER stress induced by four different MCDS-causing mutations in collagen X; (a) BiP, b) CHOP c) spliced XBP1 mRNA level in cells transiently expressing one of four mutant collagen X constructs and treated for 24 hours with Carbamazepine (CBZ) (20 μM). Quantitation is relative to actin mRNA levels. Mean±SEM. (d) Western blot showing intracellular collagen X protein levels with and without 24 hours CBZ treatment. Quantification of three independent experiments shown in (e). (f) Western blot for N617K collagen X collagen X protein levels in the presence of CBZ for either 0 or 24 hours. […] Quantification of three independent experiments relative to GAPDH and standardised against the protein level in the 16 h untreated timepoint is shown in (h) and (i). […]
FIG. 6 illustrates the degradation route of mutant collagen X proteins Western blot for (a) G618V or (c) Y598D collagen X protein levels in the presence of CBZ for either 0 or 24 hours. […] Quantification of three independent experiments relative to GAPDH and standardised against the protein level in the 16 h untreated timepoint is shown in (b) and (d). […]
Protein was extracted from cells 24 hours post-transfection. […] The resulting supernatant was transferred to a fresh tube and protein concentration determined using a Pierce bicinchoninic acid (BCA) protein assay. […]

[1] = system: wild type (+/+) and Col1a2 p.G610C (+/-) mice osteoblast cells; assay: Alkaline phosphatase activity assay in osteoblasts; assay type: cell-based, mouse; details: 7 days in osteogenic differentiation media
Procedure: Osteoblasts were cultured for 7 days in osteogenic differentiation media prior to fixation and staining. Photographs of 12-well plate wells containing wild type (+/+) and Col1a2 p.G610C (+/−) mice osteoblast cells untreated (DMSO) or treated with CBZ; and
The effects of CBZ were studied on Calvarial osteoblasts from Col1a2 p.G610C mice lines (Osteogenesis Imperfecta mouse model).
For testing of Alkaline phosphatase activity wild type (+/+) and heterozygous ((+/−) from Col1 a2 p.G610C mice) osteoblasts were cultured for 7 days in osteogenic differentiation media and with DMSO (control) or CBZ prior to fixation and staining with an Alkaline phosphate staining kit as per the manufactures instructions.

R992C Col2a1 SEDC mice = assay: TUNEL assay of chondrocyte apoptosis in the tibial growth plate of SEDC mice; assay type: in vivo; details: single treated mouse, no quantitative analysis
Procedure: The effect of CBZ on p.R992C Col2a1 mutant mice (spondyloepiphyseal dysplasia congenital (SEDC) model mice) was tested.
R992C Col2a1 SEDC mice were treated with carbamazepine (CBZ), to determine whether treatment ameliorates the disease phenotype. Increased chondrocyte apoptosis within the epiphyseal growth plate is associated with the onset of disease from 3 weeks in mouse models expressing this mutant form of COL2A1.
Chondrocyte apoptosis was detected by a Terminal deoxynucleotide transferase dUTP nick end labelling (TUNEL) assay. Tibial growth plates from wild type and SEDC mutant mice were stained according to the manufactures instructions before being imaged (data not shown).

## NC(=O)N1c2ccccc2C=Cc2ccccc21 [CBZ, Carbamazepine]
Mutant collagen X; each of 4 mutant collagen X proteins, PSII or chloroquine for the final 8 hours
  degradation rates of mutant collagen X proteins: enhanced the degradation rates
Mutant collagen X; each of 4 mutations, 24 hours CBZ treatment
  intracellular levels of mutant collagen X protein: significant reductions
[1]; OI model (Col1a2 p.G610C +/-) osteoblasts
  ALP activity: No change
[1]; wild type osteoblasts
  ALP activity: No change
R992C Col2a1 SEDC mice
  level of apoptosis in tibial growth plate chondrocytes (TUNEL): did not necessarily reduce

From patent US20190076440A1, “TREATMENT OF TISSUE DISORDERS” (priority 2016, published 2019)
